According to patent publication US20050009849A1, “Pyridopyrimidine kinase inhibitors” (priority 2003, published 2005):
Read-outs that look alike come from different tables or passages of the source. Values belong to the compound of their own block, whether it stands above or below them.

Assays:
[1] = Pharmacokinetics in B6D2F1 mice; assay type: in vivo; details: for Cmax / MRT / bioavailability: B6D2F1, mouse, plasma, 1 mg; for Cmax / MRT / AUG (uM × Min) IV / AUG (uM × Min) PO: one milligram; for bioavailability: po vs iv
Method: Solvents. […] SKI-DV281 was dissolved/suspended in a solution of 20% Cremophor +20% ethanol in saline.
Animal Experiments. For each compound, nineteen B6D2F1 mice were used. One mouse was used as control and the rest was divided into two groups with 9 mice per group. One milligram ([…] at 17 mg/ml) of compound was administered to the mice through oral gavage in one group and intravenously in the other group. At each time point (total of 9 time points) after the drug administration, one mouse from each group was sacrificed and approximately 400 μl of blood was collected into heparinized tubes through cardiac puncture. The plasma samples were analyzed as described below.
Analytical. The analysis of drug level in plasma is performed with an automated LC-MS system, which consists of a Prospekt-2 automated sample processor, interfaced with an Agilent 1100 LC-MS. The Prospekt-2 consists of two parts, high pressure eluter (HPE) and automated cartridge exchanger (ACE). The Agilent unit consists of a binary pump, an autosampler, the instrument will perform extraction and analysis automatically. The ACE picks up a new C, 18 solid phase […] (SPE) cartridge and places it into the clamp. The HPE activates the cartridge by passing acetonitrile and water through the cartridge. The autosampler picks up a predetermined amount of the plasma and the HPE flushes the plasma onto the SPE cartridge, washes it with water, then the sample is analyzed. When the cycle is completed, the ACE will fetch a new cartridge and cycle is repeated.
Data analysis and result. The pharmacokinetic curve for each compound was plotted intravenous versus oral (iv vs. po) (see FIGS. 27-29). Data analysis was performed with WinNonlin v.4 (Pharsight) using non-compartmental model.

[2] = Serial plasma levels in mice (bioavailability); assay type: in vivo; details: mouse, oral, read-out: bioavailability after oral administration relative to intravenous or intraperitoneal injection
Description: Toxicological and pharmacological studies in mice and dogs include determining the maximum tolerated doses, measuring plasma and tissue levels and bioavailability after oral and parenteral administration, and developing optimal formulations for both oral and parenteral use. […] One way to administer the drug is by continuous infusion, and we are currently exploring the use of small osmotic pumps that can be inserted into the peritoneal cavities of mice that will deliver a constant concentration continuously. All animal studies are performed under the standard guidelines. Initial dose escalation studies are performed via oral delivery on control mice in order to determine the maximum tolerated dose (MTD). Studies proceed at or below half-MTD. The inherent kinetics for disease engraftment of each model system and the appropriate windows for duration of drug administration are then determined. In the human mesothelioma xenograft model, tumor formation is evaluated, allowing for the establishment of 1-2 mm^3 tumors before drug administration. Survival data are presented using the Kaplan-Meyer method. We will compare the administration of the inhibitors by i.v. or i.p. bolus injection with continuous i.p. infusion using an osmotic pump.

[3] = tested on: R10 Negative and R10 Positive cells (M07e/p210bcr-abl); experiment: cells; details: M-07e
CML cell lines = experiment: cells; details: read-out: IC50 on CML cell lines
[4] = tested on: human glioblastoma, sarcoma, neuroblastoma and Ewing's sarcoma cell lines; experiment: cells; details: read-out: average IC50s
R10-Negative cells = experiment: CFSE cell division and viability; assay type: cell-based
Method: Using the vital stain, CFSE, it is possible to determine the concentrations of different inhibitors required to arrest cell division and also to quantitate the number of quiescent cells. […] However with exposure to ST1571 at the same concentration many cells continue dividing and 80% are still viable after 6 days; even at 100 nM ST1571, some cells are able to continue dividing and the viability is still 24% at 6 days.

Solubility = assay type: physicochemical
CML progenitors = experiment: cells; assay type: cell-based, human; details: for inhibition at 0.01 µM: read-out: average inhibition of CML GM progenitors, 10 nM
Description: (§1) In many experiments the CD34+ blasts were further depleted of GM, megakaryocyte or lymphocyte progenitors (CD 13, 14, 15, 46, 61, 19-) or of erythroid and megakaryocyte progenitors (CD36-, Glycophorin-, CD41/61-) in order to study the drug's effects on purer erythroid or GM progenitors.

normal progenitors = experiment: Inhibition of normal progenitors; assay type: cell-based, human
Description: as §1

[5] = tested on: Ba/F3 cells expressing P loop mutant E255V; experiment: MTS proliferation, Ba/F3 Bcr-Abl E255V; assay type: cell-based
Method: (§2) Presence of single point mutations was verified by sequencing. […] Parental cells were cultured in presence of 2 ng/mL interleukin-3 (IL-3, R&D, Wiesbaden, Germany). IL-3 independent Ba/F3 cells expressing wild-type and mutant BCR-ABL were generated by electroporation and transformed upon withdrawal of IL-3. Expression of Bcr-Abl was confirmed by western blot and flow-cytometric analysis.
(§3) Proliferation was measured using a MTS tetrazolium-based method by absorption of formazam at 490 nm (CellTiter 96, Promega, Madison, Wis., USA). Measures were taken as triplicates after 24 and 48 hours of culture without and in the presence of inhibitor at the indicated concentrations.

Bcr-Abl Y253H = Bcr-Abl Y253H (Homo sapiens, UniProt P00519, Y253H)
Method: (§4) Ba/F3 cells were cultured for 2,5 hours without and in presence of inhibitor at the indicated concentrations. Cell lysis, SDS-PAGE and immunoblotting were done as described previously.^42 Anti-Abl antibodies were obtained from Pharmingen (8E9) (BD Biosciences, Heidelberg, Germany) and Calbiochem-Novabiochem (Ab3) (Schwalbach, Germany). Antibodies to phosphotyrosine were purchased from Upstate Biotechnology (4G10) (Biozol, Eching, Germany) and Transduction (PY20) (BD Biosciences, Heidelberg, Germany). Bands were visualized using the ECL system (Amersham, Braunschweig, Germany).

Bcr-Abl E255V = Bcr-Abl E255V (Homo sapiens, UniProt P00519, E255V)
Method: as §4

Bcr-Abl E255K = Bcr-Abl E255K (Homo sapiens, UniProt P00519, E255K)
Method: as §4

Bcr-Abl H396P = Bcr-Abl H396P (Homo sapiens, UniProt P00519, H396P)
Method: as §4

Bcr-Abl wild-type = target: T1, Bcr-Abl wild-type (Homo sapiens, UniProt P00519); experiment: Bcr-Abl tyrosine phosphorylation in Ba/F3 cells, wild-type; assay type: cell-based
T1 construct: expressed in transfected cells; host or cells: Ba/F3 cells (electroporation, IL-3 independent); the other entry of the earlier key: BCR (P11274, Breakpoint cluster region protein)

[6] = tested on: Ba/F3 cells expressing P loop mutant Y253H; experiment: MTS proliferation, Ba/F3 Bcr-Abl Y253H; assay type: cell-based
Method: as §2, §3

Bcr-Abl/T3151 = target: T2, Bcr-Abl/T3151 (Homo sapiens, UniProt P00519, T315I); experiment: Bcr-Abl tyrosine phosphorylation in Ba/F3 cells, T3151; assay type: cell-based
T2 construct: expressed in transfected cells; host or cells: Ba/F3 cells; the other entry of the earlier key: BCR (P11274, Breakpoint cluster region protein)

[7] = target: T3, Ba/F3 cells transformed with Bcr-Abl wild-type (Homo sapiens, UniProt P00519, cells depend on it, form not given); experiment: MTS proliferation, Ba/F3 Bcr-Abl wild-type; assay type: cell-based
T3 construct: fused on or other part: P11274 (Breakpoint cluster region protein)
Method: as §2, §3

parental Ba/F3 cells = experiment: MTS proliferation, parental Ba/F3 cells; assay type: cell-based; details: read-out: IC50, unspecific growth inhibition
Description: […]. Lancet, 359: 487-491, 2002; incorporated herein by reference). Briefly, RT-PCR fragments derived from clinical samples were cloned into pBlueskript SK+ p185^bcr-abl (Stratagene, Amsterdam, NL), and subcloned into pcDNA3.1/Zeo (+) (Invitrogen, Leek, NL) and Mig EGFP (Bai, R. Y., Ouyang, T., Miething, C., Morris, S. W., Peschel, C., and Duyster, J. Nucleophosmin-anaplastic lymphoma kinase associated with anaplastic large-cell lymphoma activates the phosphatidylinositol 3-kinase/Akt antiapoptotic signaling pathway. Blood, 96: 4319-4327, 2000; incorporated herein by reference). Presence of single point mutations was verified by sequencing. Ba/F3 cells were maintained in RPMI 1640 growth media (Gibco, Karlsruhe, Germany) containing 10% fetal calf serum (Gibco) and P/S (Gibco) (200 U penicillin per mL and 200 μg streptomycin per mL). Parental cells were cultured in presence of 2 ng/mL interleukin-3 (IL-3, R&D, Wiesbaden, Germany). IL-3 independent Ba/F3 cells expressing wild-type and mutant BCR-ABL were generated by electroporation and transformed upon withdrawal of IL-3. Expression of Bcr-Abl was confirmed by western blot and flow-cytometric analysis.
Proliferation was measured using a MTS tetrazolium-based method by absorption of formazam at 490 nm (CellTiter 96, Promega, Madison, Wis., USA). […]

[8] = target: T4, Ba/F3 cells transformed with Bcr-Abl wild-type (Homo sapiens, UniProt P00519); experiment: MTS proliferation, Ba/F3 Bcr-Abl wild-type; assay type: cell-based; details: for GI50: read-out: IC50, growth inhibition
T4 construct: other: von Bubnoff et al. 2002; other: 48 hours of culture; fused on or other part: P11274 (Breakpoint cluster region protein)
Method: as §2, §3

[9] = tested on: Ba/F3 cells expressing P loop mutant E255K; experiment: MTS proliferation, Ba/F3 Bcr-Abl E255K; assay type: cell-based
Method: as §2, §3

[10] = intravenous, read-out: Cmax (uM) IV
[11] = intravenous, read-out: MRT (Min) IV (converted)
[12] = oral gavage, read-out: Cmax (uM) PO
[13] = oral gavage, read-out: MRT (Min) PO (converted)

Structure (SMILES): CSc1cccc(Nc2ncc3cc(-c4c(Cl)cccc4Cl)c(=O)n(C)c3n2)c1 [PD173955]
IC50 [3]: ~2 nM
IC50 (CML cell lines): 2 to 35 nM
IC50 [4]: 400 to 1000 nM
cell division (CFSE) (R10-Negative cells; 25 nM, after one division by Day 2): subsequent divisions are blocked
solubility (Solubility): quite insoluble
CML erythroid progenitors' exaggerated response to EPO alone or KL alone (CML progenitors; 10 nM): almost completely blocked
IC50 (CML progenitors; Homo sapiens, read-out: IC50 for CML progenitors, varies in different patients): 1.5 to 7.5 nM
inhibition at 0.01 µM (CML progenitors; Homo sapiens, G- + GM + KL): 34%
inhibition at 0.01 µM (CML progenitors; Homo sapiens, G- + GM-CSF at 0.03 ng/ml): 68%
inhibition at 0.01 µM (CML progenitors; Homo sapiens, G- + GM-CSF at 10 ng/ml): 61%
inhibition at 0.01 µM (CML progenitors; Homo sapiens, KL alone at 50-100 ng/ml): 83%
IC50 (CML progenitors; read-out: IC50 for CML progenitors, varies in different patients): ~2 nM
effect on normal erythroid progenitors (normal progenitors; 10 nM): unaffected
inhibition of normal progenitors (normal progenitors; 10 nM, any of the cytokines singly or in combination): no inhibition
IC50 (normal progenitors; Homo sapiens): 350 nM

Structure (SMILES): Cc1cc(Nc2ncc3cc(-c4c(Cl)cccc4Cl)c(=O)n(C)c3n2)ccc1F [PD180970]
cellular IC95 [5]: 935 nM
concentration of complete disappearance of phosphotyrosine Bcr-Abl (Bcr-Abl Y253H): 2 µM
concentration of complete disappearance of phosphotyrosine Bcr-Abl (Bcr-Abl E255V): 2 µM
concentration of complete disappearance of phosphotyrosine Bcr-Abl (Bcr-Abl E255K): 1 µM
concentration of complete disappearance of phosphotyrosine Bcr-Abl (Bcr-Abl H396P): 250 nM
concentration of complete disappearance of phosphotyrosine Bcr-Abl (Bcr-Abl wild-type): 250 nM
cellular IC95 [6]: 770 nM
activity (autophosphorylation) of Bcr-Abl/T3151 (Bcr-Abl/T3151): did not impair
fold higher concentrations than the most active compounds [7]: 5 fold
IC50 (parental Ba/F3 cells): 830 nM

Structure (SMILES): Cc1ccc(NC(=O)c2ccc(CN3CCN(C)CC3)cc2)cc1Nc1nccc(-c2cccnc2)n1 [STI-571]
viability at […] (R10-Negative cells; 144 h, 25 nM, after 6 days): 80%
viability at 0.1 µM (R10-Negative cells; 144 h, 100 nM, at 6 days): 24%

More lines, main results first:

Cmax [1, 10]: 90 µM
MRT [1, 11]: 103 min
Cmax [1, 12]: 3.2 µM
MRT [1, 13]: 126 min
bioavailability [1]: 6.6%
AUG (uM × Min) IV ([1]; intravenous): 2395 µM·min
AUG (uM × Min) PO ([1]; oral gavage): 158 µM·min
bioavailability [2]: ~8%
Structure (SMILES): Cn1c(=O)c(-c2c(Cl)cccc2Cl)cc2cnc(Nc3cccc(CO)c3)nc21 [PD166326, 6-(2,6-Dichlorophenyl)-2-(3-hydroxymethylphenylamino)-8-methyl-8H-pyrido[2,3-d]pyrimidin-7-one]

IC95, growth inhibition ([8]; 48 hours of culture): 515 nM
GI50 ([8]; 48 hours of culture): 115 nM
Structure (SMILES): Cn1c(=O)c(-c2c(Cl)cccc2Cl)cc2cnc(Nc3ccc(NC(=O)CCCCCNC(=O)CCCC[C@@H]4SC[C@@H]5NC(=O)N[C@@H]54)cc3)nc21 [SKI DV 1-10 biotinyl, 2-{4-[6-(Biotinamido)hexanamido]phenylamino}-6-(2,6-dichlorophenyl)-8-methyl-8H-pyrido[2,3-d]pyrimidin-7-one]

Cmax [1, 10]: 224 µM
MRT [1, 11]: 174 min
Cmax [1, 12]: 10 µM
MRT [1, 13]: 294 min
bioavailability [1]: 4%
AUG (uM × Min) IV ([1]; intravenous): 20319 µM·min
AUG (uM × Min) PO ([1]; oral gavage): 826 µM·min
IC95, growth inhibition [8]: 40 nM
GI50 ([8]; ba/f3 cells transformed with bcr-abl wild-type): 9 nM
Structure (SMILES): Cn1c(=O)c(-c2c(Cl)cccc2Cl)cc2cnc(Nc3cccc(N)c3)nc21 [SKI DV 2-43, 2-(3-Aminophenylamino)-6-(2,6-dichlorophenyl)-8-methyl-8H-pyrido[2,3-d]pyrimidin-7-one]
cellular IC95 [5]: 200 nM
cellular IC95 [9]: 110 nM
cellular IC95 [6]: 125 nM
